Measured values published in article PMC9223658, “New Borane-Protected Derivatives of α-Aminophosphonous Acid as Anti-Osteosarcoma Agents: ADME Analysis and Molecular Modeling, In Vitro Studies on Anti-Cancer Activities, and NEP Inhibition as a Possible Mechanism of Anti-Proliferative Activity” (International Journal of Molecular Sciences, 2022).

Experiments:
[1] = MTT viability assay, 24 h; type: cell-based; conditions: human, normal osteoblasts hFOB 1.19 cells, 2% FBS, read-out: CC50 (µM ± SD) hFOB 1.19
Procedure: One of the features specific totumor cells is the unlimited potential for proliferation. […] To this end, the assay conditions were established suchthat they encourage the proliferation of OS cells, i.e., the cell cultures at low density were incubated with compounds diluted in the growth medium (10% FBS) for an extended time of 96 h. Additionally, cisplatin, i.e., a common cytostatic used in osteosarcoma treatment, was included as a positive control in this study. Moreover, since the new generation of anti-cancer compounds is highly desired to be inert (non-cytotoxic) towards normal cells, the influence of compounds 1–7 on the viability of human normal cells (osteoblasts hFOB 1.19 and colon fibroblasts CCD-18Co) was also determined.To this end, the assay conditions were established such that they restrict the proliferation of OS cells and to establish whether the compounds have cytotoxic potential, i.e., the cell cultures were incubated with compounds diluted in the medium with a reduced concentration of FBS (2%) for a shortened time of 24 h. […] However, this activity varied depending on both the types of the compounds and the osteosarcoma cell lines (Table 4).
The anti-proliferative activity of compounds 1–7 against the HOS and Saos-2 osteosarcoma cells and the viability of the human normal hFOB 1.19 and CCD-18Co cells were screened by means of the MTT method. This method is commonly used to assess cell viability and proliferation or to determine the cytotoxicity of any compounds. It is a reliable method for this purpose because it is based on measurement of the level reduction in MTT dye to formazan byNAD(P)H-dependent oxidoreductase enzymes of metabolically active cells.
To assess the viability of human normal cells, confluent hFOB 1.19 (3 × 10^5 cells/mL) and CCD-18Co (1 × 10^5 cells/mL) cells seeded in 96-well plates (Nunc) were incubated with compounds 1–7 at concentrations of 3.125, 6.25, 12.5, 25, 50, 100 and 200 µM prepared in medium with 2% FBS (maintaining medium) for 24 h. The control was constituted by the untreated cells (0 µM). Next, the MTT assay was carried out as described previously.
The results of these assays were calculated as a percent of the untreated cells (100%; control). Then, the IC50 (concentration resulting in 50% inhibition of proliferation) and CC50 (concentration resulting in a 50% decrease in viability) values were calculated from a non-linear regression (log(inhibitor) vs. normalized response-variable slope) using GraphPad Prism 5.0 (GraphPAD Software Inc., San Diego, CA, USA). The IC50 and CC50 results were presented as themean ± SD of at least three experiments. In the case of the BrdU assay, the results were presented as a percent of untreated cells (100%; control).

HOS cells = experiment: Cell cycle assay (PI/RNase, flow cytometry); type: cell-based, human; conditions: 72 h
Procedure: (§1) To examine the influence of compounds 4 and 6 on the distribution of cells in the cell cycle phases, the HOS and Saos-2 osteosarcoma cells (3.0 × 10^4 cells/mL) were seeded into 6-well plates (Nunc) and incubated with compounds 4 and 6 at concentrations of 12.5, 25, 50 µM and 20, 40, 80 µM as well as 15, 30; 60 µM and 21.25, 42.5, 85 µM, respectively. The compound solutions were prepared in a medium with 10% FBS. The control was constituted by the untreated cells (0 µM). The cells were treated for 72 h. Next, floating and adherent cells were harvested and subjected to further steps of the PI staining procedure (PI/RNase Staining Buffer, BD Pharmingen^TM, BD Biosciences, San Jose, CA, USA) previously described. The PI fluorescence intensity was measured using FACS Calibur (BD Pharmingen^TM), and the obtained data were analyzed using Cell Quest Pro Version 6.0. for the Macintosh operating system (BD Pharmingen^TM). The presented results were calculated as a percent of cells in the respective cell cycle phases (sub-G1, G0/G1, S and G2) among all the analyzed cells.

Saos-2 cells = experiment: Cell cycle assay (PI/RNase, flow cytometry); type: cell-based, human; conditions: 72 h
Procedure: as §1

[2] = tested on: active caspase 3 in HOS cells; experiment: Active caspase 3 assay (flow cytometry); type: cell-based, human; conditions: 72 h
Procedure: (§2) The level of active executor caspase 3 and initiator caspase 9 was determined to examine whether compounds 4 and 6 induced apoptosis in the HOS and Saos-2 cells. The influence of compounds 4 and 6 on HOS and Saos-2 were determined with the caspase 3 assay, whereas the influence of compound 6 on the HOS cells was investigated with the caspase 9 assay. In both assays, the osteosarcoma cells (3.0 × 10^5 cells/mL) were seeded in 6-well plates. The cells were treated with compounds 4 and 6 at concentrations of 12.5, 25, 50 µM and 20, 40, 80 µM as well as 15, 30, 60 µM and 21.25, 42.5, 85 µM for 72 h, respectively. The solutions of the compounds were prepared in a medium with 2% FBS. […] Next, floating and adherent cells were harvested and subjected to further steps of the staining procedures according to the manufacturer’s instruction. The level of active caspase 3 and caspase 9 was determined using the PE Active Caspase-3 Apoptosis Kit (BD Pharmingen^TM) and the CaspaTag^TM Caspase-9 in Situ Assay Kit (Millipore, Darmstadt, Germany), respectively. The number of stained cells (active caspase 3- or 9-positive cells) was measured using FACS Calibur, and the obtained data were analyzed using Cell Quest Pro Version 6.0. for the Macintosh operating system (BD Pharmingen™). The presented results were calculated as a percent of cells with either active caspase 3 or 9 among all the analyzed cells.

[3] = tested on: active caspase 3 in Saos-2 cells; experiment: Active caspase 3 assay (flow cytometry); type: cell-based, human; conditions: 72 h
Procedure: as §2

NEP (neprilysin) = molecular target: T1, NEP (neprilysin) (Homo sapiens, UniProt P08473); experiment: Neutral endopeptidase activity assay (fluorometric); type: biochemical; conditions: vs control
T1 construct: purchased BioVision, Waltham, MA, USA
T1 sequence (P08473 whole entry): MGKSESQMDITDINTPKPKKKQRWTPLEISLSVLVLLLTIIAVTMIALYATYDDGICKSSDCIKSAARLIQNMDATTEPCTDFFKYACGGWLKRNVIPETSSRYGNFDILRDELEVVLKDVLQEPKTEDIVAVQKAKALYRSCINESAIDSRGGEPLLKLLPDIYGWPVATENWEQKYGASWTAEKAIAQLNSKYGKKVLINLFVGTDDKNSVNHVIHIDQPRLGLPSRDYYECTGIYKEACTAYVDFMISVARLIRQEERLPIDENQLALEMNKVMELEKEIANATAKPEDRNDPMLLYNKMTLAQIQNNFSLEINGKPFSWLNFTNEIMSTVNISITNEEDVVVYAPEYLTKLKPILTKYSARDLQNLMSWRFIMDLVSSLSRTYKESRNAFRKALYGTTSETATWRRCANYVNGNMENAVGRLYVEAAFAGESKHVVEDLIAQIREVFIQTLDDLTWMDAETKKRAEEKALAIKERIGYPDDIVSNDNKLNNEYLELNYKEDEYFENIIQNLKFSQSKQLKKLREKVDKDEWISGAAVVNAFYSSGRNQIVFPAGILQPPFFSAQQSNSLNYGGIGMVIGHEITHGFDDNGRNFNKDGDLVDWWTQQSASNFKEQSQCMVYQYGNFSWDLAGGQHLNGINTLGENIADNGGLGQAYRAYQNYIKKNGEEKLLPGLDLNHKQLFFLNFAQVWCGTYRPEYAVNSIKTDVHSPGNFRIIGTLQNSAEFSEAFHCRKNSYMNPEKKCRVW
Procedure: The NEP activity in the presence of compounds 4 and 6 was determined using the Neprilysin Activity Assay Kit (BioVision, Waltham, MA, USA) according to the manufacturer’s instructions. The measurement is based on the ability of active neprilysin to cleave a synthetic substrate (Abz-based peptide) to release a fluorophore, which can be easily quantified using a fluorescence microplate reader. Briefly, pure neprilysin (5µLof stock solution) was incubated with solutions of the tested compounds (at least 4 concentrations in the range of 0.01–50 µM) for 10 min at 37 °C. The reaction was started by adding the substrate solution, and the final sample volume was 100µL. Fluorescence was measured (Ex/Em = 330/430nm) in the kinetic mode at 37 °C for 1–2 h. The same procedure was used to measure the control and background sample. Thiorphan was used as a reference NEP inhibitor. NEP activity was determined with the prepared Abz standard curve and expressed in µU/mL. The experiments were performed at least in triplicates, and the graphs represent mean ±SD values.

Row | Structure (SMILES) | CC50 at 24 h [1] [µM] | number of cells at G0/G1 phase (HOS cells; 25 µM and 50 µM) | number of cells at sub-G1 and G2 phases (HOS cells; 25 µM and 50 µM) | number of cells at sub-G1 phase (Saos-2 cells; Saos-2, 30 µM and 60 µM) | increase in active caspase 3 vs untreated cells ([2]; 25 µM) | increase in active caspase 3 vs untreated cells ([2]; 50 µM) [%] | increase in active caspase 3 vs untreated cells ([3]; Saos-2, 30 µM) | increase in active caspase 3 vs untreated cells ([3]; Saos-2, 60 µM) [%] | inhibition at 0.1 µM (NEP (neprilysin); 0.1 µM) [%] | inhibition at 0.5 µM (NEP (neprilysin); 0.5 µM) [%] | inhibition at 10 µM (NEP (neprilysin); 10 µM) [%] | inhibition at 50 µM (NEP (neprilysin)) [%] | number of cells at G0/G1 phase (HOS cells; 40 µM and 80 µM) | number of cells at sub-G1 and G2 phases (HOS cells; 40 µM and 80 µM) | number of cells at sub-G1 phase (Saos-2 cells; Saos-2, 42.5 µM and 85 µM) | increase in active caspase 3 vs untreated cells ([2]; 40 µM) | increase in active caspase 3 vs untreated cells ([2]; 80 µM) [%] | increase in active caspase 3 vs untreated cells ([3]; Saos-2, 42.5 µM) | increase in active caspase 3 vs untreated cells ([3]; Saos-2, 85 µM) [%]
1 | [BH3-][P+](OC(C)C)(OC(C)C)C(Nc1ccc(Br)cc1)c1ccc([N+](=O)[O-])cc1 (stereo not drawn) [Compound 4, [1-(N-p-bromophenylamino)]-1-(p-nitrophenyl)methylphosphonousacid-borane diisopropyl ester] | 189 ± 36.4 | significant decrease | statistically significant increase | significant increase | approx. 5% | ~6 | approx. 5% | ~10 | ~40 | ~50 | ~50 | ~50 |  |  |  |  |  |  | 
2 | [BH3-][P+](OC(C)C)(OC(C)C)C(Nc1ccc(C)cc1)c1ccccc1 (stereo not drawn) [Compound 6, [1-(N-p-tolylamino)]-1-phenylmethylphosphonous acid-borane diisopropyl ester] | 266 ± 110 |  |  |  |  |  |  |  |  |  |  | ~30 | significant decrease | statistically significant increase | significant increase | approx. 9% | ~20 | approx. 4% | ~6
